Patent publication US8492394B2, “(3-aryl-piperazin-1-yl), (2-aryl-morpholin-4-yl) and (2-aryl-thiomorpholin-4-yl) derivatives of 6,7-dialkoxy-quinazoline, 6,7-dialkoxyphtalazine and 6,7-dialkoxyisoquinoline as PDE10A enzyme inhibitors” (H. Lundbeck A/S, priority 2006, dated 2013)

Biological target: PDE10A enzyme (Homo sapiens (Human), UniProt Q9Y233)
Sequence (Q9Y233 716-1055): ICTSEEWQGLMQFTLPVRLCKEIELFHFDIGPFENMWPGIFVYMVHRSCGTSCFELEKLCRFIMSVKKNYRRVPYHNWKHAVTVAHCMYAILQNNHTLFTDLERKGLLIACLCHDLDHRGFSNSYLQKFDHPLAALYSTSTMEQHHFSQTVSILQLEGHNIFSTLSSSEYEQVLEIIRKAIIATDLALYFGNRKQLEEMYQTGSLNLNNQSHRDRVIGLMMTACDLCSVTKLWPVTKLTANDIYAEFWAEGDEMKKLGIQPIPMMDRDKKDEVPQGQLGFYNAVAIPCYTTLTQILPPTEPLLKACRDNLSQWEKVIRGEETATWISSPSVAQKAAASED
Test: PDE10A inhibition assay
Format: biochemical
Conditions: tritium labeled cAMP 5 nM, SPA; read-out: PDE10 IC50
Experimental: Active PDE10A enzyme is prepared in a number of ways for use in PDE assays (Loughney, K. et al. Gene 1999, 234, 109-117; Fujishige, K. et al. Eur J. Biochem. 1999, 266, 1118-1127 and Soderling, S. et al. Proc. Natl. Acad. Sci. 1999, 96, 7071-7076). PDE10A can be expressed as full-length proteins or as truncated proteins, as long as they express the catalytic domain. PDE10A can be prepared in different cell types, for example insect cells or E. coli. An example of a method to obtain catalytically active PDE10A is as follows: The catalytic domain of human PDE10A (amino acids 440-779 from the sequence with accession number NP 006652) is amplified from total human brain total RNA by standard RT-PCR and is cloned into the BamH1 and Xho 1 sites of the pET28a vector (Novagen). Expression in coli is performed according to standard protocols. Briefly, the expression plasmids are transformed into the BL21 (DE3) E. coli strain, and 50 mL cultures inoculated with the cells allowed to grow to an OD600 of 0.4-0.6 before protein expression is induced with 0.5 mM IPTG. Following induction, the cells are incubated overnight at room temperature, after which the cells are collected by centrifugation. Cells expressing PDE10A are resuspended in 12 mL (50 mM TRIS-HCl-pH8.0, 1 mM MgCl2 and protease inhibitors). The cells are lysed by sonication, and after all cells are lysed, TritonX100 is added according to Novagen protocols.
PDE10A assays have been described previously (Loughney, K. et al. Gene 1999, 234, 109-117; Fujishige, K. et al. Eur J Biochem. 1999, 266, 1118-1127 and Soderling, S. et al. Proc. Natl. Acad. Sci. 1999, 96, 7071-7076). PDE10A assays could for example can be performed as follows: PDE10A assays are performed in 60 uL samples containing a fixed amount of the relevant PDE enzyme (sufficient to convert 20-25% of the cyclic nucleotide substrate), a buffer (50 mM HEPES7.6; 10 mM MgCl2; 0.02% Tween20), 0.1 mg/ml BSA, 225 pCi of ^3H-labelled cyclic nucleotide substrate, tritium labeled cAMP to a final concentration of 5 nM and varying amounts of inhibitors. Reactions are initiated by addition of the cyclic nucleotide substrate, and reactions are allowed to proceed for one hr at room temperature before being terminated through mixing with 15 uL 8 mg/mL yttrium silicate SPA beads (Amersham). The beads are allowed to settle for one hr in the dark before the plates are counted in a Wallac 1450 Microbeta counter. The measured signal can be converted to activity relative to an uninhibited control (100%) and IC50 values can be calculated using the Xlfit extension to EXCEL.
For `COc1cc2ncnc(N3CCSC(c4ccccc4)C3)c2cc1OC` (centres unmarked) [Compound 1, 6,7-Dimethoxy-4-(2-phenyl-thiomorpholin-4-yl)-quinazoline], the IC50 was 89 nM. In the case of `COc1cccc(C2CN(c3ncnc4cc(OC)c(OC)cc34)CCN2)c1` (centres unmarked) [Compound 2, 6,7-Dimethoxy-4-(3-(3-methoxyphenyl)-piperazin-1-yl)-quinazoline], the IC50 is reported as 33 nM. With `COc1cc2ncnc(N3CCOC(c4ccc(C)cc4)C3)c2cc1OC` (centres unmarked) [Compound 3, 6,7-Dimethoxy-4-(2-(4-methylphenyl)-morpholin-4-yl)-quinazoline] the IC50 was 79 nM. For `COc1cccc([C@@H]2CN(c3ncnc4cc(OC)c(OC)cc34)CCN2)c1` [Compound 4, 6,7-Dimethoxy-4-((R)-3-(3-methoxyphenyl)-piperazin-1-yl)-quinazoline], the IC50 was 600 nM. `COc1cccc([C@H]2CN(c3ncnc4cc(OC)c(OC)cc34)CCN2)c1` [Compound 5, 6,7-Dimethoxy-4-((S)-3-(3-methoxyphenyl)-piperazin-1-yl)-quinazoline] showed an IC50 of 14 nM. Work on `COc1cc2ncnc(N3CCN[C@H](c4ccccc4)C3)c2cc1OC` [Compound 6, 6,7-Dimethoxy-4-((R)-3-phenyl-piperazin-1-yl)-quinazoline] yielded an IC50 of 65 nM. `COc1cc2ncnc(N3CCN[C@@H](c4ccccc4)C3)c2cc1OC` [Compound 7, 6,7-Dimethoxy-4-((S)-3-phenyl-piperazin-1-yl)-quinazoline] showed an IC50 of 90 nM. `COc1cc2ncnc(N3CCNC(c4cc(OC)c(OC)c(OC)c4)C3)c2cc1OC` (centres unmarked) [Compound 8, 4-[3-(3,4,5-trimethoxyphenyl)-piperazin-1-yl]-6,7-dimethoxy-quinazoline] showed an IC50 of 180 nM. For `COc1cc2ncnc(N3CCNC(c4ccccc4OC)C3)c2cc1OC` (centres unmarked) [Compound 9, 4-[3-(2-methoxyphenyl)-piperazin-1-yl]-6,7-dimethoxy-quinazoline], the IC50 was 110 nM. `COc1cc2ncnc(N3CCOC(c4ccc(F)cc4)C3)c2cc1OC` (centres unmarked) [Compound 10, 6,7-Dimethoxy-4-(2-(4-fluorophenyl)-morpholin-4-yl)-quinazoline] showed an IC50 of 200 nM. In the case of `COc1cc2ncnc(N3CCOC(c4ccc(Cl)cc4)C3)c2cc1OC` (centres unmarked) [Compound 11, 6,7-Dimethoxy-4-(2-(4-chlorophenyl)-morpholin-4-yl)-quinazoline], the IC50 is reported as 260 nM. For `COc1cc2ncnc(N3CCOC(c4ccc(C(F)(F)F)cc4)C3)c2cc1OC` (centres unmarked) [Compound 12, 6,7-Dimethoxy-4-(2-(4-trifluomethylphenyl)-morpholin-4-yl)-quinazoline], the IC50 was 660 nM. With `COc1cc2ncnc(N3CCOC(c4ccccc4Cl)C3)c2cc1OC` (centres unmarked) [Compound 13, 6,7-Dimethoxy-4-(2-(2-chlorophenyl)-morpholin-4-yl)-quinazoline] the IC50 was 190 nM. `COc1cc2ncnc(N3CCNC(c4ccc(N(C)C)cc4)C3)c2cc1OC` (centres unmarked) [Compound 14, 4-[3-(4-dimethylaminophenyl)-piperazin-1-yl]-6,7-dimethoxy-quinazoline] gave an IC50 of 62 nM. In the case of `COc1cc2ncnc(N3CCNC(c4ccc5c(c4)OCO5)C3)c2cc1OC` (centres unmarked) [Compound 15, 4-[3-(3,4-methylenedioxyphenyl)-piperazin-1-yl]-6,7-dimethoxy-quinazoline], the IC50 is reported as 35 nM. `COc1cc2ncnc(N3CCNC(c4cc(Cl)ccc4Cl)C3)c2cc1OC` (centres unmarked) [Compound 16, 4-[3-(2,5-dichlorophenyl)-piperazin-1-yl]-6,7-dimethoxy-quinazoline] showed an IC50 of 170 nM.

Tested on: rats
Test: not given
Conditions: alone; cited from earlier work
For `COc1ccc(Cc2nccc3cc(OC)c(OC)cc23)cc1OC` [Papaverin], the “catalepsy on its own” value is listed as “did not cause catalepsy on its own”.

Same assay, conditions: with the D2 receptor antagonist haloperidol; cited from earlier work
In the case of `COc1ccc(Cc2nccc3cc(OC)c(OC)cc23)cc1OC` [Papaverin], the “cataleptic effect of haloperidol” value is given as “potentiated the cataleptic effect”.

Tested on: rats
Test: not given
Conditions: cited from earlier work
For `COc1ccc(Cc2nccc3cc(OC)c(OC)cc23)cc1OC` [Papaverin], the “hyperactivity induced by PCP” value is listed as “reduced hyperactivity”.

Tested on: rats
Test: not given
Conditions: cited from earlier work
Remark: another data set of the same source
For `COc1ccc(Cc2nccc3cc(OC)c(OC)cc23)cc1OC` [Papaverin], the “reduction of amphetamine induced hyperactivity” value is given as “insignificant”.
